How the values were obtained:
CDK7 = CDK7 (Homo sapiens (Human), UniProt P50613); experiment: In vitro inhibitory activity against CDK7 (Table 1); format: biochemical
Method: In vitro kinase assays with immunoprecipitated proteins (or recombinant CAK complexes) were performed as follows. Kinase reactions were performed in 25 μL of final volume of reaction buffer (50 mM Hepes, pH 7.5, 150 mM NaCl, 10 mM MgCl2, 5% glycerol, 25 μM ATP, and 10 μCi of [γ-32P]ATP). Each reaction contained 1 μg of RNAP II. Incubation was at 30° C. for 30-45 min. Reactions were terminated by addition of 5 μL of 5×SDS-PAGE sample buffer and incubated at 95° C. for 5 min. Reactions were analyzed by SDS-PAGE, and the dried gel was exposed to film or PhosphorImager plate.

Jurkat = Jurkat (proliferation, CellTiter-Glo); format: cell-based; details: Homo sapiens, Jurkat; read-out: Calculated IC50, Jurkat
IRAK1 = IRAK1 (Homo sapiens (Human), UniProt P51617); experiment: Life Technologies Adapta kinase assay, IRAK1; format: biochemical; details: superscript b (footnote not given; tested at 100 nM and 1 μM)
Sequence of IRAK1 (P51617 whole entry): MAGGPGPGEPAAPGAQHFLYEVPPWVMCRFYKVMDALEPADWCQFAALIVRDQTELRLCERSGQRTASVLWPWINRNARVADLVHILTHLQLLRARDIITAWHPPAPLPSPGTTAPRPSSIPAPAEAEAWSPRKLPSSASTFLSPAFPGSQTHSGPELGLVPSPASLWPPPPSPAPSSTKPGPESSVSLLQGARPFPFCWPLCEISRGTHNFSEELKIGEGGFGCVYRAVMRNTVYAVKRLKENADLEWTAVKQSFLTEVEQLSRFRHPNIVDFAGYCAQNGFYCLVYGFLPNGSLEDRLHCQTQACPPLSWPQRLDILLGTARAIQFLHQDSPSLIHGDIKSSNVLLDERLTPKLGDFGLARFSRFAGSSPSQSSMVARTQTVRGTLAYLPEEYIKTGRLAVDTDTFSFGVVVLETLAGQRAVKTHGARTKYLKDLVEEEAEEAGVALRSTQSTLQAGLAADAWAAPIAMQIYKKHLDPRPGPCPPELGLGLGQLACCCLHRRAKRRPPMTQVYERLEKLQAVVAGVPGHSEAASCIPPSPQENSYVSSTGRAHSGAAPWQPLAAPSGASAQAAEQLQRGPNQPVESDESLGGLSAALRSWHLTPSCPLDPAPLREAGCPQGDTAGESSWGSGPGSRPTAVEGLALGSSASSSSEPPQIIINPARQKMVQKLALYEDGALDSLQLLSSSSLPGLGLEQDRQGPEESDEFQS

MLK3 = MLK3 (Homo sapiens (Human), UniProt Q16584); experiment: Life Technologies LanthaScreen Eu kinase assay, MLK3; format: binding; details: superscript b (footnote not given; tested at 100 nM and 1 μM)
Sequence of MLK3 (Q16584 whole entry): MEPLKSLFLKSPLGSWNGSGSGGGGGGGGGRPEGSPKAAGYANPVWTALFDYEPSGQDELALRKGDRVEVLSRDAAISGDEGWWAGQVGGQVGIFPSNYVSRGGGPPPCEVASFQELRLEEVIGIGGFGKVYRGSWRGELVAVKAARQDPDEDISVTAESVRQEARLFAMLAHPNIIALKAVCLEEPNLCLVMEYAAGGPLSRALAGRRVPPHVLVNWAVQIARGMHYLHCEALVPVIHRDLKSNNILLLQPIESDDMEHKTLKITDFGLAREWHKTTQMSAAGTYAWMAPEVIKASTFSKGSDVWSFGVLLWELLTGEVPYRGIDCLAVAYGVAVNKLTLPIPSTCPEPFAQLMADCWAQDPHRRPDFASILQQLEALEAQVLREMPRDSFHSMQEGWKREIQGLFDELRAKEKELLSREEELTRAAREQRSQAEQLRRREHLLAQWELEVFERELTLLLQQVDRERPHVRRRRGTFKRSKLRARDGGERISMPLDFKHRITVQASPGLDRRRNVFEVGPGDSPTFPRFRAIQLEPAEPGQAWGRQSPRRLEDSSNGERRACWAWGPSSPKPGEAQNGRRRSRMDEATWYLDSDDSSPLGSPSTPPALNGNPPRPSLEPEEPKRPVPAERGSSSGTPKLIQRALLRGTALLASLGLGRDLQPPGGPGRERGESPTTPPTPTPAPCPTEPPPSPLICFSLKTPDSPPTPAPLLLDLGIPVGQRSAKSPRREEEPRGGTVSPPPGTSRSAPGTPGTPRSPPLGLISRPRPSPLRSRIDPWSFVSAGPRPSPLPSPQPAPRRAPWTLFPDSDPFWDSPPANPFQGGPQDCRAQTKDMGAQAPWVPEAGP

HL60 = experiment: Proliferation assay, CellTiter-Glo, 72 hour; format: cell-based; details: Homo sapiens, HL-60, blood cancer cell line, read-out: Inhibition of proliferation, HL60
THP-1 = experiment: Proliferation assay, CellTiter-Glo, 72 hour; format: cell-based; details: Homo sapiens, THP-1, blood cancer cell line, read-out: Inhibition of proliferation, THP-1
MV4-11 = experiment: Proliferation assay, CellTiter-Glo, 72 hour; format: cell-based; details: Homo sapiens, MV4-11, blood cancer cell line, read-out: Inhibition of proliferation, MV4-11
RS4-11 = experiment: Proliferation assay, CellTiter-Glo, 72 hour; format: cell-based; details: Homo sapiens, RS4-11, blood cancer cell line, read-out: Inhibition of proliferation, RS4-11
hTERT-HME1 = experiment: Proliferation assay, CellTiter-Glo, 72 hour; format: cell-based; details: hTERT-HME1, immortalized normal mammary epithelial cell line, read-out: Inhibition of proliferation, hTERT-HME1
MDA-MB231 = experiment: Proliferation assay, CellTiter-Glo, 72 hour; format: cell-based; details: Homo sapiens, MDA-MB-231, breast cancer cell line, read-out: Inhibition of proliferation, MDA-MB231
MCF7 = experiment: Proliferation assay, CellTiter-Glo, 72 hour; format: cell-based; details: Homo sapiens, MCF7, breast cancer cell line, read-out: Inhibition of proliferation, MCF7
MCF10A = experiment: Proliferation assay, CellTiter-Glo, 72 hour; format: cell-based; details: Homo sapiens, MCF-10A, non-tumorigenic breast epithelial cell line, read-out: Inhibition of proliferation, MCF10A
T47D = experiment: Proliferation assay, CellTiter-Glo, 72 hour; format: cell-based; details: Homo sapiens, T47D, breast cancer cell line, read-out: Inhibition of proliferation, T47D
SKBR3 = experiment: Proliferation assay, CellTiter-Glo, 72 hour; format: cell-based; details: Homo sapiens, SK-BR-3, breast cancer cell line, read-out: Inhibition of proliferation, SKBR3
A673 = experiment: Proliferation assay, CellTiter-Glo, 72 hour; format: cell-based; details: Homo sapiens, A673, Ewing's sarcoma cell line, read-out: Inhibition of proliferation, A673
Hs822T = experiment: Proliferation assay, CellTiter-Glo, 72 hour; format: cell-based; details: Ewing's sarcoma cell line, read-out: Inhibition of proliferation, Hs822T
Hs863T = experiment: Proliferation assay, CellTiter-Glo, 72 hour; format: cell-based; details: Ewing's sarcoma cell line, read-out: Inhibition of proliferation, Hs863T
RD-ES = experiment: Proliferation assay, CellTiter-Glo, 72 hour; format: cell-based; details: RD-ES, Ewing's sarcoma cell line, read-out: Inhibition of proliferation, RD-ES
SK-ES = experiment: Proliferation assay, CellTiter-Glo, 72 hour; format: cell-based; details: Ewing's sarcoma cell line, read-out: Inhibition of proliferation, SK-ES
SAOS = experiment: Proliferation assay, CellTiter-Glo, 72 hour; format: cell-based; details: osteosarcoma cell line, read-out: Inhibition of proliferation, SAOS
MNNG-HOS Cl#5 = experiment: Proliferation assay, CellTiter-Glo, 72 hour; format: cell-based; details: osteosarcoma cell line, read-out: Inhibition of proliferation, MNNG-HOS Cl#5
143B = experiment: Proliferation assay, CellTiter-Glo, 72 hour; format: cell-based; details: Homo sapiens, 143B, osteosarcoma cell line, read-out: Inhibition of proliferation, 143B

Sequence of CDK7 (P50613 whole entry, looked up): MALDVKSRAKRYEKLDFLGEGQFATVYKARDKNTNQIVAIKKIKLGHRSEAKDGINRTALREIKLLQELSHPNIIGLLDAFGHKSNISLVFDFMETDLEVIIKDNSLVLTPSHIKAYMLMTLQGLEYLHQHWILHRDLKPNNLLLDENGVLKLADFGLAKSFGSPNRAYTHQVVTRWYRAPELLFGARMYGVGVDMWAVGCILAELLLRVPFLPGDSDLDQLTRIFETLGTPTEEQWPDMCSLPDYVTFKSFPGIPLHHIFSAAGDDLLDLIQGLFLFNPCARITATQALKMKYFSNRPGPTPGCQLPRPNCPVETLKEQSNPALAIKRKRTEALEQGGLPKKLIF
Sequence of CDK7 (P51946 whole entry partner, looked up): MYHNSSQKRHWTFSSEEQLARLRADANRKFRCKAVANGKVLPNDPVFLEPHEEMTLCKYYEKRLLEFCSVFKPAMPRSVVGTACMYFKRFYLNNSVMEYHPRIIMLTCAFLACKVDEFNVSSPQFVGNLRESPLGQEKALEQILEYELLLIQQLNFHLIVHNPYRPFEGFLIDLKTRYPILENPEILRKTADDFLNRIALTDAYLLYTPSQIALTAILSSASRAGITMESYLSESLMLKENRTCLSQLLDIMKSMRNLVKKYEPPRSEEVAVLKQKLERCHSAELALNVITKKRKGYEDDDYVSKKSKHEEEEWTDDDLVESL
Sequence of CDK7 (P51948 whole entry partner, looked up): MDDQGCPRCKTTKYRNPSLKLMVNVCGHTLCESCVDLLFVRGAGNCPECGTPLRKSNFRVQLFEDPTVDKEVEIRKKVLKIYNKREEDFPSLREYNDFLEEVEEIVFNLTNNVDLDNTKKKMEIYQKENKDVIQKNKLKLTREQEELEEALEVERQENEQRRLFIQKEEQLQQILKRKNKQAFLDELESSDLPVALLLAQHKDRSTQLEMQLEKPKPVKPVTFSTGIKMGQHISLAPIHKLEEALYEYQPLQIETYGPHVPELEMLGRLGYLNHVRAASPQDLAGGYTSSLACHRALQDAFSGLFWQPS

`CN(C)C/C=C/C(=O)Nc1ccc(C(=O)Nc2cccc(Nc3ncc(Cl)c(-c4cccc5[nH]ccc45)n3)c2)cc1` [Formula I-30] showed an IC50 (CDK7) of 347 nM.

`CN(C)C/C=C/C(=O)Nc1ccc(C(=O)Nc2cccc(Nc3ncc(Cl)c(-c4cc5ccccc5[nH]4)n3)c2)cc1` [Formula I-34] gave an IC50 (CDK7) of 4750 nM.

`Cc1cnc(Nc2cccc(NC(=O)c3ccc(NC(=O)/C=C/CN(C)C)cc3)c2)nc1-c1c[nH]c2ccccc12` [Formula I-19] was tested, and the IC50 (CDK7) was 15.7 nM.

Molecule `CN(C)C/C=C/C(=O)Nc1ccc(C(=O)Nc2cccc(Nc3ncc(Cl)c(-n4cnc5ccccc54)n3)c2)cc1` [Formula I-27] has an IC50 (CDK7) of 201 nM.

`Cc1cnc(Nc2cccc(NC(=O)c3ccc(NC(=O)/C=C/CN(C)C)cc3)c2)nc1-c1c[nH]c2cccc(C)c12` [Formula I-41] was tested, and the IC50 (CDK7) was 809 nM.

`Cc1ccc(NC(=O)c2ccc(NC(=O)/C=C/CN(C)C)cc2)cc1Nc1ncc(Cl)c(-c2c[nH]c3ccccc23)n1` [Formula I-22] was tested, and the IC50 (CDK7) was 32.6 nM.

In the case of `CN(C)C/C=C/C(=O)NCc1ccc(C(=O)Nc2cccc(Nc3ncc(Cl)c(-c4c[nH]c5ccccc45)n3)c2)cc1` [Formula I-43], the IC50 (CDK7) is reported as 36.2 nM.

`CN(C)C/C=C/C(=O)Nc1ccc(C(=O)N(C)c2cccc(Nc3ncc(Cl)c(-c4c[nH]c5ccccc45)n3)c2)cc1` [Formula I-57, (E)-N-(3-(5-chloro-4-(1H-indol-3-yl)pyrimidin-2-ylamino)phenyl)-4-(4-(dimethylamino)but-2-enamido)-N-methylbenzamide] was tested, and the IC50 (Jurkat) was at least 1000 nM, the “Percent inhibition, IRAK1^b” value (IRAK1) was “C (less than 50% inhibition)” and the “Percent inhibition, MLK3^b” value (MLK3) was “C (less than 50% inhibition)”.

`CN(C)C/C=C/C(=O)Nc1ccc(C(=O)Nc2cccc(Nc3nc(-c4c[nH]c5ccccc45)c4ccccc4n3)c2)cc1` [Formula I-33] gave an IC50 (CDK7) of 1420 nM.

In the case of `CN(C)C/C=C/C(=O)Nc1ccc(C(=O)Nc2cccc(Nc3ncc(Cl)c(-c4cccc5[nH]ccc45)n3)c2)cc1` [Formula I-31], the IC50 (CDK7) is reported as 416 nM.

In the case of `C=CC(=O)Nc1ccc(C(=O)Nc2cccc(Nc3ncc(Cl)c(-c4c[nH]c5ccccc45)n3)c2)cc1` [Formula I-24], the IC50 (CDK7) is reported as 40 nM.

Molecule `Cc1cccc2[nH]cc(-c3ccnc(Nc4cccc(NC(=O)c5ccc(NC(=O)/C=C/CN(C)C)cc5)c4)n3)c12` [Formula I-40] has an IC50 (CDK7) of 3470 nM.

Work on `CN(C)C/C=C/C(=O)Nc1ccc(C(=O)Nc2cccc(Nc3ncc(Cl)c(-c4cn(C)c5ccccc45)n3)c2)cc1` [Formula I-28] yielded an IC50 (CDK7) of 238 nM.

In the case of `Cc1nc(C)c(-c2nc(Nc3cccc(NC(=O)c4ccc(NC(=O)/C=C/CN(C)C)cc4)c3)ncc2Cl)s1` [Formula I-50], the IC50 (CDK7) is reported as 92.3 nM.

With `CCSC(=O)CCNc1ccc(C(=O)Nc2cccc(Nc3ncc(Cl)c(-c4c[nH]c5ccccc45)n3)c2)cc1` [Formula I-37] the IC50 (CDK7) was 557 nM.

`CN(C)C/C=C/C(=O)Nc1ccc(C(=O)Nc2ccc(Cl)c(Nc3ncc(Cl)c(-c4c[nH]c5ccccc45)n3)c2)cc1` [Formula I-25] was tested, and the IC50 (CDK7) was 87.8 nM.

Work on `CN(C)C/C=C/C(=O)Nc1ccc(C(=O)Nc2cccc(Nc3ncc(Cl)c(-c4cnc5[nH]ccc5c4)n3)c2)cc1` [Formula I-29] yielded an IC50 (CDK7) of 288 nM.

In the case of `Cc1nc(Nc2cccc(NC(=O)c3ccc(NC(=O)/C=C/CN(C)C)cc3)c2)nc(-c2c[nH]c3ccccc23)c1C` [Formula I-39], the IC50 (CDK7) is reported as 1350 nM.

For `CN(C)C/C=C/C(=O)Nc1ccc(C(=O)Nc2cccc(Nc3ncc(Cl)c(-c4c(-c5ccccc5)nn5ccccc45)n3)c2)cc1` [Formula I-38], the IC50 (CDK7) was 3010 nM.

For `Cc1ccc(Nc2ncc(C#N)c(-c3c[nH]c4ccccc34)n2)cc1NC(=O)c1ccc(NC(=O)/C=C/CN(C)C)cc1` [Formula I-56, (E)-N-(5-(5-cyano-4-(1H-indol-3-yl)pyrimidin-2-ylamino)-2-methylphenyl)-4-(4-(dimethylamino)but-2-enamido)benzamide], the IC50 (Jurkat) was under 100 nM, the “Percent inhibition, IRAK1^b” value (IRAK1) was “C (less than 50% inhibition)” and the “Percent inhibition, MLK3^b” value (MLK3) was “C (less than 50% inhibition)”.

`CN(C)C/C=C/C(=O)Nc1cccc(C(=O)Nc2cccc(Nc3ncc(Cl)c(-c4c[nH]c5ccccc45)n3)c2)c1` [Formula I-18] gave an IC50 (CDK7) of 13.9 nM.

With `CN(C)C/C=C/C(=O)Nc1ccc(C(=O)Nc2cccc(Nc3ncc(Cl)c(-c4ccc5cc[nH]c5c4)n3)c2)cc1` [Formula I-32] the IC50 (CDK7) was 1180 nM.

`CN(C)C/C=C/C(=O)Nc1ccc(S(=O)(=O)Nc2cccc(Nc3ncc(Cl)c(-c4c[nH]c5ccccc45)n3)c2)cc1` [Formula I-52, (E)-N-(4-(N-(3-(5-chloro-4-(1H-indol-3-yl)pyrimidin-2-ylamino)phenyl)sulfamoyl)phenyl)-4-(dimethylamino)but-2-enamide] was tested, and the IC50 (Jurkat) was 100 to 1000 nM.

With `CN(C)C/C=C/C(=O)Nc1ccc(S(=O)(=O)Nc2cccc(Nc3ncc(C#N)c(-c4c[nH]c5ccccc45)n3)c2)cc1` [Formula I-55, (E)-N-(4-(N-(3-(5-cyano-4-(1H-indol-3-yl)pyrimidin-2-ylamino)phenyl)sulfamoyl)phenyl)-4-(dimethylamino)but-2-enamide] the IC50 (Jurkat) was 100 to 1000 nM.

Work on `CN(C)C/C=C/C(=O)Nc1ccc(C(=O)Nc2cccc(Nc3ncc(C4CC4)c(-c4c[nH]c5ccccc45)n3)c2)cc1` [Formula I-26] yielded an IC50 (CDK7) of 184 nM.

Molecule `CN(C)C/C=C/C(=O)Nc1ccc(C(=O)Nc2cccc(Nc3ncc(C(F)(F)F)c(-c4c[nH]c5ccccc45)n3)c2)cc1` [Formula I-42] has an IC50 (CDK7) of 35.7 nM.

`CCc1cnc(Nc2cccc(NC(=O)c3ccc(NC(=O)/C=C/CN(C)C)cc3)c2)nc1-c1c[nH]c2ccccc12` [Formula I-21] gave an IC50 (CDK7) of 22.7 nM.

`CN(C)C/C=C/C(=O)Nc1ccc(C(=O)Nc2cccc(Nc3nccc(-c4c[nH]c5ccccc45)n3)c2)cc1` [Formula I-44] showed an IC50 (CDK7) of 391 nM.

Work on `CC(C)[C@]12O[C@H]1[C@@H]1O[C@]13[C@]1(O[C@H]1C[C@H]1C4=C(CC[C@@]13C)C(=O)OC4)[C@@H]2O` [Triptolide, triptolide, reference compound] yielded an IC50 (HL60) of under 500 nM, an IC50 (THP-1) of under 500 nM and an IC50 (MV4-11) of under 500 nM. It also gave an IC50 (RS4-11) of under 500 nM, an IC50 (hTERT-HME1) of under 500 nM and an IC50 (MDA-MB231) of under 500 nM. It also gave an IC50 (MCF7) of under 500 nM, an IC50 (MCF10A) of under 500 nM and an IC50 (T47D) of over 5 µM. The IC50 (SKBR3) was under 500 nM, the IC50 (A673) was under 500 nM and the IC50 (Hs822T) was 500 to 5000 nM. It also gave an IC50 (Hs863T) of over 5 µM, an IC50 (RD-ES) of under 500 nM and an IC50 (SK-ES) of under 500 nM. The IC50 (SAOS) was under 500 nM, the IC50 (MNNG-HOS Cl#5) was under 500 nM and the IC50 (143B) was under 500 nM.
